Laboratory results as given in patent US6962920B2, “Pyrimidine derivatives and methods of making and using these derivatives” (Duquesne University of the Holy Ghost, priority 1992, dated 2005).

Assays:
[1] = molecular target: T1, RL DHFR (Rattus norvegicus, UniProt Q920D2); assay: Inhibition of DHFR from rat liver; format: biochemical
T1 construct: Toxoplasmosis gondii (Tg) and rat liver (RL); from tissue; host or cells: rat liver
T1 sequence (Q920D2 1-187): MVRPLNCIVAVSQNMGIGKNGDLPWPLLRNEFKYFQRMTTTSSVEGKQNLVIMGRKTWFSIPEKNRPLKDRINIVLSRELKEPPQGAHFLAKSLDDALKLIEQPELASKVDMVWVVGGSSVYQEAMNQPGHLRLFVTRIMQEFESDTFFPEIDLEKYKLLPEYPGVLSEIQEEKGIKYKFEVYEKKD
Protocol: The selectivity ratio is a measure of the selectivity of a compound for Pc DHFR or Tg DHFR and is expressed as the IC50 value of the DHFR from rate liver (RL) divided by the IC50 value of either the Pc DHFR or the Tg DHFR, depending on which organism the compounds are being tested against. For example, the selectivity ratio of a compound is calculated by the following formula: [formula]

[2] = test system: CCRF-CEM; assay: NCI in vitro anti-cancer activity, Leukemia; format: cell-based; conditions: Table 29, Leukemia
[3] = test system: HL-60 (TB); assay: NCI in vitro anti-cancer activity, Leukemia; format: cell-based; conditions: Table 29, Leukemia
[4] = test system: MOLT-4; assay: NCI in vitro anti-cancer activity, Leukemia; format: cell-based; conditions: Table 29, Leukemia
[5] = test system: SR; assay: NCI in vitro anti-cancer activity, Leukemia; format: cell-based; conditions: Table 29, Leukemia
[6] = test system: A549/ATCC; format: cell-based; conditions: Table 29, Non-Small Cell Lung Cancer
[7] = test system: NCI-H522; format: cell-based; conditions: Table 29, Non-Small Cell Lung Cancer, NCI-H522
[8] = test system: COLO 205; assay: NCI in vitro anti-cancer activity, Colon Cancer; format: cell-based; conditions: Table 29, Colon Cancer, COLO 205
[9] = test system: HCT-116; assay: NCI in vitro anti-cancer activity, Colon Cancer; format: cell-based; conditions: Table 29, Colon Cancer
[10] = test system: HT29; assay: NCI in vitro anti-cancer activity, Colon Cancer; format: cell-based; conditions: Table 29, Colon Cancer, HT29
[11] = test system: SF-295; assay: NCI in vitro anti-cancer activity, CNS Cancer; format: cell-based; conditions: Table 29, CNS Cancer, SF-295
[12] = test system: SF-539; assay: NCI in vitro anti-cancer activity, CNS Cancer; format: cell-based; conditions: Table 29, CNS Cancer
[13] = test system: SNB-75; assay: NCI in vitro anti-cancer activity, CNS Cancer; format: cell-based; conditions: Table 29, CNS Cancer, SNB-75
[14] = test system: LOX IMVI; assay: NCI in vitro anti-cancer activity, Melanoma; format: cell-based; conditions: Table 29, Melanoma
[15] = test system: M14; assay: NCI in vitro anti-cancer activity, Melanoma; format: cell-based; conditions: Table 29, Melanoma, M14
[16] = test system: SK-MEL-2; assay: NCI in vitro anti-cancer activity, Melanoma; format: cell-based; conditions: Table 29, Melanoma, SK-MEL-2
[17] = test system: UACC-257; assay: NCI in vitro anti-cancer activity, Melanoma; format: cell-based; conditions: Table 29, Melanoma
[18] = test system: OVCAR-3; assay: NCI in vitro anti-cancer activity, Ovarian Cancer; format: cell-based; conditions: Table 29, Ovarian Cancer, OVCAR-3
[19] = test system: OVCAR-4; assay: NCI in vitro anti-cancer activity, Ovarian Cancer; format: cell-based; conditions: Table 29, Ovarian Cancer, OVCAR-4
[20] = test system: OVCAR-8; assay: NCI in vitro anti-cancer activity, Ovarian Cancer; format: cell-based; conditions: Table 29, Ovarian Cancer, OVCAR-8
[21] = test system: ACHN; assay: NCI in vitro anti-cancer activity, Renal Cancer; format: cell-based; conditions: Table 29, Renal Cancer
[22] = test system: TK-10; assay: NCI in vitro anti-cancer activity, Renal Cancer; format: cell-based; conditions: Table 29, Renal Cancer, TK-10
[23] = test system: UO-31; assay: NCI in vitro anti-cancer activity, Renal Cancer; format: cell-based; conditions: Table 29, Renal Cancer, UO-31
[24] = test system: PC-3; assay: NCI in vitro anti-cancer activity, Prostate Cancer; format: cell-based; conditions: Table 29, Prostate Cancer, PC-3
[25] = test system: MDA-MB-231/ATCC; assay: NCI in vitro anti-cancer activity, Breast Cancer; format: cell-based; conditions: Table 29, Breast Cancer
[26] = test system: MDA-N; assay: NCI in vitro anti-cancer activity, Breast Cancer; format: cell-based; conditions: Table 29, Breast Cancer
[27] = test system: T-47D; assay: NCI in vitro anti-cancer activity, Breast Cancer; format: cell-based; conditions: Table 29, Breast Cancer
[28] = test system: SK-MEL-5; assay: NCI in vitro anti-cancer activity, Melanoma; format: cell-based; conditions: Table 29, Melanoma
[29] = test system: K-562; assay: NCI in vitro anti-cancer activity; conditions: Table 29, Leukemia
Excerpt: (§1) The compounds identified below were further tested for their in vitro anti-cancer activity by the National Cancer Institute.

[30] = test system: NCI/ADR-RES; assay: NCI in vitro anti-cancer activity, breast cancer; conditions: Table 29, Breast Cancer, NCI/ADRRES
Excerpt: as §1

[31] = test system: RPMI-8226; assay: NCI in vitro anti-cancer activity, Leukemia; format: cell-based; conditions: Table 29, Leukemia
[32] = test system: HCT-15; assay: NCI in vitro anti-cancer activity, Colon Cancer; format: cell-based; conditions: Table 29, Colon Cancer, HCT-15

Compound	GI50 [3] [µM]	GI50 [4] [µM]	GI50 [5] [µM]	GI50 [6] [µM]	GI50 [7] [µM]	GI50 [8] [µM]	GI50 [9] [µM]	GI50 [10] [µM]	GI50 [11] [µM]	GI50 [12] [µM]	GI50 [13] [µM]	GI50 [14] [µM]	GI50 [15] [µM]	GI50 [16] [µM]	GI50 [17] [µM]	GI50 [18] [µM]	GI50 [19] [µM]	GI50 [20] [µM]	GI50 [21] [µM]	GI50 [22] [µM]	further results
COc1ccccc1CCc1cn(Cc2ccccc2)c2nc(N)nc(C)c12 [Compound 113-148]	4.81	7.46	3.51	6.46	8.34	11.7	4.51	4.77	8.43	7.2	17.6	13.7	12	13.1	6.36	14.8	8.88	17.6	7.99	10.2	% inhibition RL DHFR ([1]; @ 85 μM): 27% @; GI50 [2]: 2.97 µM; GI50 [23]: 4.78 µM; GI50 [24]: 9.47 µM; GI50 [25]: 10.8 µM; GI50 [26]: 14.7 µM; GI50 [27]: 3.84 µM; GI50 [28]: 5.8 µM; GI50 [29]: 5.91 µM; GI50 [30]: 6.75 µM
COc1cc(CCc2c[nH]c3nc(N)nc(C)c23)cc(OC)c1OC [Compound 113-154A]	41.8	38.7	32.5	26.1	25	48.2	36.8	10	36.6	20.4	27.5	30	29.8	98.3	56.4	74.8	77.8	31.1	35.7	58.9	IC50 ([1]; Table 26, read-out: Inhibitory Concentrations (IC50) RL DHFR): 2.3 µM; GI50 [31]: 67.4 µM; GI50 [32]: 24.3 µM; GI50 [23]: 34 µM; GI50 [24]: 22.2 µM; GI50 [25]: 37.3 µM; GI50 [26]: 35.3 µM; GI50 [27]: 60.2 µM; GI50 [28]: 37.3 µM; GI50 [29]: 23 µM; GI50 [30]: 25.9 µM
